Data as given in ChEMBL document CHEMBL4507310, “Data for DCP probe A-1211212” (2021).

Key:
[1] = target: Melatonin receptor type 1B (Homo sapiens) (UniProt P49286); test: MT2 (ML1B) (h) Eurofins-Cerep binding assay; parameters: ligand concentration 0.05 nM; conditions: filed as agonist, Compound concentration 10.0 uM
[2] = target: T1, Muscarinic acetylcholine receptor M2 (Homo sapiens) (UniProt P08172); test: M2 (h) Eurofins-Cerep binding assay; parameters: ligand concentration 2 nM; conditions: filed as antagonist, Compound concentration 10.0 uM
T1 sequence (whole entry): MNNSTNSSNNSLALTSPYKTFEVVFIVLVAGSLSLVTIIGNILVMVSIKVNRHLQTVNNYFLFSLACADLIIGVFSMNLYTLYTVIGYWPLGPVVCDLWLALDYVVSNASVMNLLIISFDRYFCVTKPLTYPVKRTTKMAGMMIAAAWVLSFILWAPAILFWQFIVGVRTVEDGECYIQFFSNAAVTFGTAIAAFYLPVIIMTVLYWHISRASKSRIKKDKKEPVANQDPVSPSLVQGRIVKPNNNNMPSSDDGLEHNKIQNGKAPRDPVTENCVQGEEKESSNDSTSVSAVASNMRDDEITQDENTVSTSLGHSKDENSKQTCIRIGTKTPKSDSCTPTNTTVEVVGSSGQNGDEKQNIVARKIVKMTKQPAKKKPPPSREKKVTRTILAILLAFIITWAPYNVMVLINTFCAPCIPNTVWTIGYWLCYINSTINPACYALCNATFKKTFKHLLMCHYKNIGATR

[3] = target: T2, Muscarinic acetylcholine receptor M5 (Homo sapiens) (UniProt P08912); test: M5 (h) Eurofins-Cerep binding assay; parameters: ligand concentration 0.3 nM; conditions: filed as antagonist, Compound concentration 10.0 uM
T2 sequence (whole entry): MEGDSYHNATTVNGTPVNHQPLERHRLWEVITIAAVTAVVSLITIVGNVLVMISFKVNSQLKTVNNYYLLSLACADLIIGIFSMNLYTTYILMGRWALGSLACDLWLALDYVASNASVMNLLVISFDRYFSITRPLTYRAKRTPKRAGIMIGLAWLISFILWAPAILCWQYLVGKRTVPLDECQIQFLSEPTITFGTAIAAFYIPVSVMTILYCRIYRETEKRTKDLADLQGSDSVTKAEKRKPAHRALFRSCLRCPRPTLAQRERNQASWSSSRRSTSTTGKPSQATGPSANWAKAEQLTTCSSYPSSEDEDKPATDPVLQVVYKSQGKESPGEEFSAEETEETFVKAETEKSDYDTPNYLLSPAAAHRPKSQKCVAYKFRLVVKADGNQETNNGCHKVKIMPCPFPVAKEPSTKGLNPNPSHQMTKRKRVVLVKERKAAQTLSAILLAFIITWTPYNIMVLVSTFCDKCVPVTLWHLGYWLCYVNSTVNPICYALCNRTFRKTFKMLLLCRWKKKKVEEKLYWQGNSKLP

[4] = target: 5-hydroxytryptamine receptor 1B (Homo sapiens) (UniProt P28222); test: 5-HT1B(h) Eurofins-Cerep binding assay; parameters: ligand concentration 1 nM; conditions: filed as antagonist, Compound concentration 10.0 uM
[5] = target: Sodium-dependent serotonin transporter (Homo sapiens) (UniProt P31645); test: 5-HT transporter (h) Eurofins-Cerep binding assay; parameters: ligand concentration 2 nM; conditions: filed as antagonist, Compound concentration 10.0 uM
[6] = target: Atypical kinase COQ8B, mitochondrial (Homo sapiens) (UniProt Q96D53); conditions: Compound concentration 1000.0 nM
Sequence of Atypical kinase COQ8B, mitochondrial (Homo sapiens) (Q96D53 whole entry): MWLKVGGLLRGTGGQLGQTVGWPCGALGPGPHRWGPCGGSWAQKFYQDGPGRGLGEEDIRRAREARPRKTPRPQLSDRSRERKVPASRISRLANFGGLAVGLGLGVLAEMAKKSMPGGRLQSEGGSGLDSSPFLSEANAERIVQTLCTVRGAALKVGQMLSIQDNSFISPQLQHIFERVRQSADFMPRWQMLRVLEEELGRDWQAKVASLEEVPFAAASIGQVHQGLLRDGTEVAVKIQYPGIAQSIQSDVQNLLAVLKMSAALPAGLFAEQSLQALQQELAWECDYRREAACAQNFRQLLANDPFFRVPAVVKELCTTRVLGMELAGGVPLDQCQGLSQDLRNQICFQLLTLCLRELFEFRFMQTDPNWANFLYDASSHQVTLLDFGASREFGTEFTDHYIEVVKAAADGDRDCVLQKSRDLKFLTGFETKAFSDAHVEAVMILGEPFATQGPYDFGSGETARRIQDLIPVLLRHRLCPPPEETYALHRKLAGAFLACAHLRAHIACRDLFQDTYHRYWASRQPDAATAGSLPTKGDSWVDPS

[7] = target: Mitogen-activated protein kinase kinase kinase 5 (Homo sapiens) (UniProt Q99683); conditions: Compound concentration 1000.0 nM
[8] = target: Cyclin-dependent kinase 4 (Homo sapiens) (UniProt P11802); conditions: Compound concentration 1000.0 nM
Sequence of Cyclin-dependent kinase 4 (Homo sapiens) (P11802 whole entry, canonical isoform): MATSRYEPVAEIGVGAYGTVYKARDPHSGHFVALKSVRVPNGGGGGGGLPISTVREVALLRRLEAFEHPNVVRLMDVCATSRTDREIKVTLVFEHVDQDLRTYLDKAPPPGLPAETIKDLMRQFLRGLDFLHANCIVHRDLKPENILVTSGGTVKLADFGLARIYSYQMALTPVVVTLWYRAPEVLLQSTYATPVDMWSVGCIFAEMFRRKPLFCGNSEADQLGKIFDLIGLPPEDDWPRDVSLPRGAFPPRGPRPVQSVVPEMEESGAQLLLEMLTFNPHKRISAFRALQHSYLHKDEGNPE

[9] = target: Casein kinase I isoform alpha (Homo sapiens) (UniProt P48729); conditions: Compound concentration 1000.0 nM
[10] = target: Casein kinase I isoform epsilon (Homo sapiens) (UniProt P49674); conditions: Compound concentration 1000.0 nM
[11] = target: Ephrin type-A receptor 4 (Homo sapiens) (UniProt P54764); conditions: Compound concentration 1000.0 nM
[12] = target: Ephrin type-B receptor 4 (Homo sapiens) (UniProt P54760); conditions: Compound concentration 1000.0 nM
[13] = test system: Receptor-type tyrosine-protein kinase FLT3 (Homo sapiens), P36888 [D835V]; conditions: Compound concentration 1000.0 nM
[14] = target: Tyrosine-protein kinase Fyn (Homo sapiens) (UniProt P06241); conditions: Compound concentration 1000.0 nM
[15] = target: Homeodomain-interacting protein kinase 2 (Homo sapiens) (UniProt Q9H2X6); conditions: Compound concentration 1000.0 nM
[16] = test system: Mast/stem cell growth factor receptor Kit (Homo sapiens), P10721 [V559D]; conditions: Compound concentration 1000.0 nM
[17] = target: Serine/threonine-protein kinase LATS2 (Homo sapiens) (UniProt Q9NRM7); conditions: Compound concentration 1000.0 nM
[18] = target: Serine/threonine-protein kinase MAK (Homo sapiens) (UniProt P20794); conditions: Compound concentration 1000.0 nM
[19] = target: Dual specificity mitogen-activated protein kinase kinase 2 (Homo sapiens) (UniProt P36507); conditions: Compound concentration 1000.0 nM
[20] = target: Dual specificity mitogen-activated protein kinase kinase 6 (Homo sapiens) (UniProt P52564); conditions: Compound concentration 1000.0 nM
[21] = target: MAP kinase-interacting serine/threonine-protein kinase 2 (Homo sapiens) (UniProt Q9HBH9); conditions: Compound concentration 1000.0 nM
[22] = target: Mitogen-activated protein kinase kinase kinase 10 (Homo sapiens) (UniProt Q02779); conditions: Compound concentration 1000.0 nM
[23] = target: Phosphatidylinositol 4-kinase beta (Homo sapiens) (UniProt Q9UBF8); conditions: Compound concentration 1000.0 nM
Sequence of Phosphatidylinositol 4-kinase beta (Homo sapiens) (Q9UBF8 2-816 limits assumed): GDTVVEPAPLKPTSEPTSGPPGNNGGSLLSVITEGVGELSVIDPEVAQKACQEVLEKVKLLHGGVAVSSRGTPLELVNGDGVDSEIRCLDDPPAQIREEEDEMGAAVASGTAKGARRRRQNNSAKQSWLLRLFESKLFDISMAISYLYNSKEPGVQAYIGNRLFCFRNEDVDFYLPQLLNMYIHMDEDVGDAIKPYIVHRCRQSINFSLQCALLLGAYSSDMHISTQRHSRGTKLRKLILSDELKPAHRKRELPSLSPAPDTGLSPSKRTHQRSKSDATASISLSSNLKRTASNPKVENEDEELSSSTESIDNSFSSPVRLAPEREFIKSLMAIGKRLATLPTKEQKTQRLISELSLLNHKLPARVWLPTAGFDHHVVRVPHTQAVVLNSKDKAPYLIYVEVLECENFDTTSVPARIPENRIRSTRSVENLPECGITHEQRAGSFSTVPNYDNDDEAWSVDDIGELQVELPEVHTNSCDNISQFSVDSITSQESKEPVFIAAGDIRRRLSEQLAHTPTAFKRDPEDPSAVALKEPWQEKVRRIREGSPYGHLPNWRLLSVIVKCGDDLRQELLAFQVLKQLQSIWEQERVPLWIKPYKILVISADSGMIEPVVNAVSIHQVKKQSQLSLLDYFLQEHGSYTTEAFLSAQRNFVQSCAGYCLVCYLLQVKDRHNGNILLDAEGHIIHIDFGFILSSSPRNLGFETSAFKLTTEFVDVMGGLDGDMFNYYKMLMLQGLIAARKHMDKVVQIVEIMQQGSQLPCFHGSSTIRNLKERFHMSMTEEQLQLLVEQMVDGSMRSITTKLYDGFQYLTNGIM

[24] = target: Phosphatidylinositol 5-phosphate 4-kinase type-2 gamma (Homo sapiens) (UniProt Q8TBX8); conditions: Compound concentration 1000.0 nM
Sequence of Phosphatidylinositol 5-phosphate 4-kinase type-2 gamma (Homo sapiens) (Q8TBX8 whole entry): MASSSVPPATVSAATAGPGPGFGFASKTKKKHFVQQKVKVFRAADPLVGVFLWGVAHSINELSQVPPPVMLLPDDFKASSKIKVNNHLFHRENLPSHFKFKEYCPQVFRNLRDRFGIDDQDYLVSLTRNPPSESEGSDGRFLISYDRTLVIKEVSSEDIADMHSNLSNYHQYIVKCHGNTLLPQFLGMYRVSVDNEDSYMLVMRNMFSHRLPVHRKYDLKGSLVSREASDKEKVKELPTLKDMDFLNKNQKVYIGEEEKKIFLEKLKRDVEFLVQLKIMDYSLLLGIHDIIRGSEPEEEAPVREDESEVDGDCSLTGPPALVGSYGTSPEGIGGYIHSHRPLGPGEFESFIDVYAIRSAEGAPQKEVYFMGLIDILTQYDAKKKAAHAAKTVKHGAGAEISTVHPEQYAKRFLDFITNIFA

[25] = target: cAMP-dependent protein kinase catalytic subunit alpha (Homo sapiens) (UniProt P17612); conditions: Compound concentration 1000.0 nM
[26] = target: Protein kinase C delta type (Homo sapiens) (UniProt Q05655); conditions: Compound concentration 1000.0 nM
Sequence of Protein kinase C delta type (Homo sapiens) (Q05655 whole entry, looked up): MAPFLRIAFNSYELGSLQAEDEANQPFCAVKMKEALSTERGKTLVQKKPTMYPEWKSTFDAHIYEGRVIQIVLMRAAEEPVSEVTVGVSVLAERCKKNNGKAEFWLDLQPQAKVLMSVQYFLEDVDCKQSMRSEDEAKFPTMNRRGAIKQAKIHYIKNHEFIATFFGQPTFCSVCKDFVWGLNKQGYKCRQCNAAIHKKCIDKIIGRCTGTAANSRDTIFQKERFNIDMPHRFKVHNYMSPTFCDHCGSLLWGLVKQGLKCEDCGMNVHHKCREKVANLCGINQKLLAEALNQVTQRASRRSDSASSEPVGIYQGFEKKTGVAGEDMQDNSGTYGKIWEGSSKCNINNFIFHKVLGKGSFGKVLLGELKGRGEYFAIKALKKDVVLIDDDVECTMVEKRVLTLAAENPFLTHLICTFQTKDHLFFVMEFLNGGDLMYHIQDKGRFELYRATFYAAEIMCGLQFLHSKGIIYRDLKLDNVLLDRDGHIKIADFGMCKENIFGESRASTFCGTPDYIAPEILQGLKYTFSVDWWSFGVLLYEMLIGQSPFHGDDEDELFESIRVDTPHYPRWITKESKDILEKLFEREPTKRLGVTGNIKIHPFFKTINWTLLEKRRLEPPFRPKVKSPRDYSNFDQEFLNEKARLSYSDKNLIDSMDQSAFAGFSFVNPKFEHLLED

[27] = target: Serine/threonine-protein kinase RIO1 (Homo sapiens) (UniProt Q9BRS2); conditions: Compound concentration 1000.0 nM
Sequence of Serine/threonine-protein kinase RIO1 (Homo sapiens) (Q9BRS2 whole entry): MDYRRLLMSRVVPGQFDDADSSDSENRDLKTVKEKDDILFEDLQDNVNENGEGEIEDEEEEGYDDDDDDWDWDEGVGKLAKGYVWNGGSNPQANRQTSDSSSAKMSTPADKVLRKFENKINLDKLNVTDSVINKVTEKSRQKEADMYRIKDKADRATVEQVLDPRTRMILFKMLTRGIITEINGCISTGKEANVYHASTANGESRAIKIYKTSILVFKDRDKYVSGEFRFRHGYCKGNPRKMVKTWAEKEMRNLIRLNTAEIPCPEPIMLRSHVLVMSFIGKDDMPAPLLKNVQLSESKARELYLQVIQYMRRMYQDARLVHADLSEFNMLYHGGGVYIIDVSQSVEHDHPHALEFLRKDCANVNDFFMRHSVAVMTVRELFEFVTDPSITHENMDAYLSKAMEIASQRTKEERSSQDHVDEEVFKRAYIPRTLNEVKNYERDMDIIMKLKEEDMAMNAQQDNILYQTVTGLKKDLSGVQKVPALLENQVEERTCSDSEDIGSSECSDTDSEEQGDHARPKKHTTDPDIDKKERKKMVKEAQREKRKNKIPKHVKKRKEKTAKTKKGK

[28] = target: Tyrosine-protein kinase TXK (Homo sapiens) (UniProt P42681); conditions: Compound concentration 1000.0 nM
[29] = target: Serine/threonine-protein kinase ULK3 (Homo sapiens) (UniProt Q6PHR2); conditions: Compound concentration 1000.0 nM
[30] = target: Vascular endothelial growth factor receptor 2 (Homo sapiens) (UniProt P35968); conditions: Compound concentration 1000.0 nM
Sequence of Vascular endothelial growth factor receptor 2 (Homo sapiens) (P35968 whole entry): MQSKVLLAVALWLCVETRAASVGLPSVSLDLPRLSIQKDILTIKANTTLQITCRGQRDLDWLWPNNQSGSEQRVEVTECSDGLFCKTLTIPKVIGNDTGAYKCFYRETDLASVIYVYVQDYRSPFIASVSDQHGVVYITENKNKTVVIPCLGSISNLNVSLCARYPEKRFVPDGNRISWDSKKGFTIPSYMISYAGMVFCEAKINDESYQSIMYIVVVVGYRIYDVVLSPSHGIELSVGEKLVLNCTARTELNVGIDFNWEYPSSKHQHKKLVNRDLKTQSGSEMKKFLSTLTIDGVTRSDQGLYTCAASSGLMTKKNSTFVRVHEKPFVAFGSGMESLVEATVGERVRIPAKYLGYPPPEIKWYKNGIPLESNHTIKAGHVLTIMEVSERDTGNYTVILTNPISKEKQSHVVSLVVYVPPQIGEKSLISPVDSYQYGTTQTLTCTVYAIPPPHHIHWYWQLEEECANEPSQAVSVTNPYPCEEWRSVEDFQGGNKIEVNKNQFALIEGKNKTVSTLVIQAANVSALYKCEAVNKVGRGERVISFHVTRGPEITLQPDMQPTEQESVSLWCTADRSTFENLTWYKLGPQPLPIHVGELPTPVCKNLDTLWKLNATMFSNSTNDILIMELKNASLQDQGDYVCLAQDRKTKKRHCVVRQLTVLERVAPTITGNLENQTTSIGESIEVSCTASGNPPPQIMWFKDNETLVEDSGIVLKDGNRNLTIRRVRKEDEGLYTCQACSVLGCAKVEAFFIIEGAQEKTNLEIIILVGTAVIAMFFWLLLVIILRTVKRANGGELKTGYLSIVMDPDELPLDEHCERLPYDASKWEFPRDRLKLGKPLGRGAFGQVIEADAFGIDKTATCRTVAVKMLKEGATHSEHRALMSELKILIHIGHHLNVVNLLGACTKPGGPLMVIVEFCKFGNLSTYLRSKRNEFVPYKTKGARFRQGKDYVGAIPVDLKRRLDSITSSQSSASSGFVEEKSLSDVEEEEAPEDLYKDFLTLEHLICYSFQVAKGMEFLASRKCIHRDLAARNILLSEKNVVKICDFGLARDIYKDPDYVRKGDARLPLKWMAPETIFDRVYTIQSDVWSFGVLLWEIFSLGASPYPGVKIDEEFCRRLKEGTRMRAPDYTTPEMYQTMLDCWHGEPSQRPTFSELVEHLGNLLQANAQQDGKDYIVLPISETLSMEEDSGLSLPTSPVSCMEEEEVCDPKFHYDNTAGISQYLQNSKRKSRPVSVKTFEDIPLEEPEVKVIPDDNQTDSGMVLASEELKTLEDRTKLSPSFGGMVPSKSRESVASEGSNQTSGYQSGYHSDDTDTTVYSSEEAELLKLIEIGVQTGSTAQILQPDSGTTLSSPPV

[31] = target: Sigma non-opioid intracellular receptor 1 (Homo sapiens) (UniProt Q99720); conditions: Compound concentration 10.0 uM

Sequence of Melatonin receptor type 1B (Homo sapiens) (P49286 whole entry): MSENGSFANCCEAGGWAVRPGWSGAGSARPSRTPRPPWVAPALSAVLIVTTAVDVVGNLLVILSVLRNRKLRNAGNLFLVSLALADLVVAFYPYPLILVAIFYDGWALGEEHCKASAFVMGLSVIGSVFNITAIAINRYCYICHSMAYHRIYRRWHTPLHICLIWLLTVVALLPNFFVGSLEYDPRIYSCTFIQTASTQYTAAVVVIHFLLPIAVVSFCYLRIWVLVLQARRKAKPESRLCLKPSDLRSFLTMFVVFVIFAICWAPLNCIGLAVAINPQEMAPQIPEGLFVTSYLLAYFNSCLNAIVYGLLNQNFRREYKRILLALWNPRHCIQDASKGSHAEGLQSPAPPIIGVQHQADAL

| Compound | % Inhibition of Control Specific Binding (Mean n=2) [1] [%] | % Inhibition of Control Specific Binding (Mean n=2) [2] [%] | % Inhibition of Control Specific Binding (Mean n=2) [3] [%] | % Inhibition of Control Specific Binding (Mean n=2) [4] [%] | % Inhibition of Control Specific Binding (Mean n=2) [5] [%] | residual activity [6] [%] | residual activity [7] [%] | residual activity [8] [%] | residual activity [9] [%] | residual activity [10] [%] | residual activity [11] [%] | residual activity [12] [%] | residual activity [13] [%] | residual activity [14] [%] | residual activity [15] [%] | residual activity [16] [%] | residual activity [17] [%] | residual activity [18] [%] | residual activity [19] [%] | residual activity [20] [%] | other results |
| --- | --- | --- | --- | --- | --- | --- | --- | --- | --- | --- | --- | --- | --- | --- | --- | --- | --- | --- | --- | --- | --- |
| O=C(NS(=O)(=O)c1ccc(NCC2CCOCC2)c([N+](=O)[O-])c1)c1ccc(N2CCN(Cc3ccc(C(F)(F)F)cc3-c3ccc(Cl)cc3)CC2)cc1Oc1cnc2[nH]ccc2c1 [A-1210227] | 10.2 | 0.3 | -1.6 | -4.9 | 0.4 | 90 | 82 | 100 | 96 | 95 | 100 | 100 | 100 | 100 | 100 | 100 | 100 | 97 | 100 | 97 | residual activity [21]: 83%; residual activity [22]: 95%; residual activity [23]: 79%; residual activity [24]: 100%; residual activity [25]: 76%; residual activity [26]: 100%; residual activity [27]: 100%; residual activity [28]: 94%; residual activity [29]: 85%; residual activity [30]: 100%; inhibition [31]: 11.1% |
| CO[C@H]1CC[C@H](CNc2ccc(S(=O)(=O)NC(=O)c3ccc(N4CCN(CC5=C(c6ccc(Cl)cc6)CC(C)(C)CC5)CC4)cc3Oc3cnc4[nH]ccc4c3)cc2[N+](=O)[O-])CC1 [A-1211212] | 32 | -4.7 | 8.6 | -1 | -2.2 | 100 | 78 | 100 | 85 | 88 | 88 | 100 | 100 | 97 | 100 | 99 | 100 | 90 | 100 | 84 | residual activity [21]: 73%; residual activity [22]: 89%; residual activity [23]: 97%; residual activity [24]: 85%; residual activity [25]: 78%; residual activity [26]: 70%; residual activity [27]: 100%; residual activity [28]: 100%; residual activity [29]: 80%; residual activity [30]: 100%; inhibition [31]: 49.8% |
